The values that follow come from patent US20230372374A1, “VETERINARY PHARMACEUTICAL FORMULATIONS” (INCREVET, INC., priority 2022, published 2023).

Data set [1] is described as follows: Solubility of bexagliflozin in aqueous media. It counts as physicochemical. Conditions: aqueous media at 37° C.
Data set [2] can be described thus: Pharmacokinetics in cats after capsule dosing. It counts as in vivo, cat. As for the experimental part:
Capsules were evaluated using cohorts of four laboratory cats that were administered test article at multiple dose levels. The test article was prepared in size 4 gelatin capsules and administered by mouth to animals that had been fasted 12 h. The capsules were loaded with 5% bexagliflozin (w/w) in microcrystalline cellulose for the 0.1, 0.3 and 1.0 mg kg^−1 dose levels, and with bexagliflozin alone for the 3.0 and 10.0 mg kg^−1 dose levels. The cats were provided with food ad libitum 2 hours after dosing.
Blood samples were collected from the acral vein at the scheduled time points. Samples of 0.1 to 0.3 mL were drawn into 1.5 mL tubes containing dipotassium EDTA as an anticoagulant. The samples were immediately mixed by gently inverting the tube approximately 8 times. Immediately following mixing, the tubes were placed on crushed ice and kept chilled until centrifugation. Samples were centrifuged within 1 hour of collection. Following centrifugation, the tubes were returned to crushed ice and supernatants transferred into microcentrifuge tubes and frozen. The tubes were stored frozen in a −20° C. freezer at the testing facility prior to shipment for analysis. Plasma bexagliflozin concentration was measured by an LC-MS/MS method. Separations were performed using an Agilent 1200 equipped with a Thermo Betasil C18 50×2.1 mm, 5 μm packing column or a Phenomenex Gemini C18 50×4.5 mm, 5 μm packing column. Analyte detection was performed with an ABI 4000 or AB Sciex QTRAP 5500 mass spectrometer.
The volume of distribution was relatively large, ranging from 5.5 to 11.9 L kg^−1, with no dose-dependent trend. […] The majority of the variation in half-life was attributable to variation in the volume of distribution, and the clearance was relatively constant at 1.46±0.24 L h^−1 kg^−1. The AUC0-24 was proportional to dose over the entire dosing range and a linear regression with a constrained intercept of 0 ng h mL^−1 at 0 mg kg^−1 gave a slope of 762 ng h mL^−1 per mg kg^−1 of dose (FIG. 2).

Data set [3] relates to renal glucose reuptake. Description: Urinary glucose excretion in cats after DEGEE/glycerol liquid formulations. It counts as in vivo, cat. Conditions: daily oral DEGEE/glycerol liquid formulations F16D-V1 to F16D. As for the experimental part:
The pharmacodynamics produced by liquid formulations of bexagliflozin were also evaluated. Cats were fed daily with Whiskas Cat Food in Can (Ocean Fish) and bexagliflozin was delivered orally daily with different formulations derived from F16D as shown in Table 15.
Cats were dosed with F16D-V0 (0.1 mL kg^−1) for two days (vehicle control), and urine samples were collected on the second day for glucose excretion analysis. Similarly, cats were dosed daily with F16D-V1 (0.1 mL kg^−1) from Day 1 to Day 4 at 0.1 mg kg^−1 dose, and urine samples were collected from Day 2 to Day 4 for glucose excretion analysis; cats were dosed daily with F16D-V2 (0.1 mL kg^−1) from Day 5 to Day 8 at 0.3 mg kg^−1 dose, and urine samples were collected from Day 6 to Day 8 for glucose excretion analysis; cats were dosed daily with F16D-V3 (0.1 mL kg^−1) from Day 9 to Day 12 at 1 mg kg^−1 dose, and urine samples collected from Day 10 to Day 12 for glucose excretion analysis; and cats were dosed daily with F16D (0.1 mL kg^−1) from Day 13 to Day 16 at 3 mg kg^−1 dose, and urine samples were collected from Day 14 to Day 16 for glucose excretion analysis.
Urine samples were analyzed using a HITACHI 7600-010 automatic biochemistry analyzer. Urine glucose and creatinine concentrations were measured. […]

Data set [4] relates to renal glucose reuptake. Description: Urinary glucose excretion in cats after capsule dosing. It counts as in vivo, cat. As for the experimental part:
The pharmacodynamics of inhibitors of renal glucose reuptake can be easily monitored by measurement of urinary glucose excretion (UGE). The sodium-linked glucose transporters SGLT1 and SGLT2 are expressed in the second and first segments, respectively, (pars recta and pars convoluta) of the renal proximal tubule.
As described above, 4 laboratory cats were administered bexagliflozin as either a blend with microcrystalline cellulose or as pure bexagliflozin, in each case in gelatin capsules. Bexagliflozin induced a significant glucosuria in healthy cats. At 3 mg kg^−1, total urinary glucose excreted over a period of 24 hours was 4.78 g (Table 14). […] Glucosuria following test article administration in the fasted state was higher than glucosuria following administration in the fed state (Table 14, bottom row).

For data set [5], the system named is renal glucose reuptake. Description: Urinary glucose excretion in cats after tablet dosing. It counts as in vivo, cat. As to conditions: healthy cats, tablets, corrected for assay. On the procedure: A dose range-finding study was conducted with tablets prepared using a polacrilex resin slurry process. For the evaluation of pharmacodynamics, animals were fed canned food, to promote a constant daily urine volume and proper collection of urine samples. Water was supplied ad libitum.
All animals were administered test article at each dose level. The 2.5 mg dose was delivered as half of one 5 mg tablet cleaved with a pill cutter. The 5 mg dose was delivered as one 5 mg tablet per cat, the 10 mg dose was delivered as one 10 mg tablet per cat and the 30 mg dose was delivered as two 15 mg tablets per cat. For the pharmacokinetics study, test articles were dosed after the sampling of blood at pre-dose (0 h) time point. For the pharmacodynamics study, test articles were administered daily at 9:00-9:30 for four consecutive days and urine excreted by the animals for the last three days (after the dose and before next dose) was collected.
Collections were performed for three days to diminish the consequences of day-to-day variation of urine excretion. […] For convenience in referring to dose levels, the nominal dosages are used in this report, but calculations of dose-response relationships in mg kg^−1 were based on the measured bexagliflozin content.
The pharmacodynamics elicited by bexagliflozin delivered by tablets was also evaluated. […]

The conditions of data set [6]: humans; cited from earlier work.

≈ marks a conversion by molar mass, not a printed value.

Turning to `OC[C@H]1O[C@@H](c2ccc(Cl)c(Cc3ccc(OCCOC4CC4)cc3)c2)[C@H](O)[C@@H](O)[C@@H]1O` [Bexagliflozin, (2S,3R,4R,5S,6R)-2-(4-chloro-3-(4-(2-cyclopropoxyethoxy)benzyl)phenyl)-6-(hydroxymethyl)tetrahydro-2H-pyran-3,4,5-triol], the solubility (commonly the dissolved amount per volume that the medium holds) in data set [1] is around 500 µg/mL (≈ 1080 µM). Also, the “slope of AUC0-24 versus dose” value in data set [2] (cats, capsules, linear regression with constrained intercept of 0) is 762 ng h mL^−1 per mg kg^−1. In addition, in data set [2] (in vivo, po), the time to peak (Tmax) (usually the time at which the peak concentration occurs) was 0.6 to 1.2 h; the clearance worked out at 24.3 ± 4 mL/min/kg; the half-life (in general, the time in which the quantity being followed falls by half) lay within 2.9 to 5.9 h; the volume of distribution lay in the range of 5.5 to 11.9 L/kg. Further, the “half-maximal dose (ED50) for daily glucose excretion” value in the data set with renal glucose reuptake [3] is 0.383 mg/kg/day. Besides, the “maximum daily glucose excretion (predicted)” value in the data set on renal glucose reuptake [3] (0.1 to 3 mg kg^−1) is reported as 7854 mg. Moreover, the “total urinary glucose excreted over a period of 24 hours” value in the data set with renal glucose reuptake [4] (cats, capsule, 3 mg kg^−1) was 4.78 g. For the same molecule, in the data set with renal glucose reuptake [4] (healthy cats, capsules), the ED50 of glucosuria was 0.56 mg/kg. Besides, in the data set with renal glucose reuptake [5], the “ED50 for UGE” value came to 0.505 mg/kg. Moreover, the “hazard ratio for the reduction in major adverse cardiovascular events” value in data set [6] is 0.774.
